For this test, the target named is T1, STK25 (YSK1) (Homo sapiens, UniProt O00506).
T1 construct: purchased Thermo Fisher Scientific (Life Technologies) SelectScreen
Briefly: SelectScreen Z'LYTE. The test is classed as biochemical. In short, it runs like this:
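NU5455 was profiled across the SelectScreen Broad panel of kinase activity and binding assays. Z'LYTE reactions such as CSF1R ran at apparent Km ATP, while the Adapta CAMK1 assay used ATP listed as 10. Values are given as percent.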

T1 sequence (O00506 whole entry): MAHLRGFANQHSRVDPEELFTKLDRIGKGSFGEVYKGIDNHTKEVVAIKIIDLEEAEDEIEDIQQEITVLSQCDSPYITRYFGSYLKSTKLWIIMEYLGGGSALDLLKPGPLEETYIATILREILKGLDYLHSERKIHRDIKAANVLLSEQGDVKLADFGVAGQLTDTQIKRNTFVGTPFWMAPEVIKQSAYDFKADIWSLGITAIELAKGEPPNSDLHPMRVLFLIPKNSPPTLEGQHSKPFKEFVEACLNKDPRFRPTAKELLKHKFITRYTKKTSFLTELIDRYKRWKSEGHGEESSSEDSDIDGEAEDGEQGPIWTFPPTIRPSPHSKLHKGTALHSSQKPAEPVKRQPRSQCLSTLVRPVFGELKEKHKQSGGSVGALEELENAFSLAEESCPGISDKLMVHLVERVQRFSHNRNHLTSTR

In the case of `CN(C(=O)CN1CCOCC1)c1ccc2sc3c(-c4cccc5c(=O)cc(N6CC7CCC(C6)O7)oc45)cccc3c2c1` [NU5455], the inhibition – broadly, the change of the read-out against control, counted positive when it falls – at 1 µM was -11.4%.

The record behind these values is PMC6934184, “Selective DNA-PKcs inhibition extends the therapeutic index of localized radiotherapy and chemotherapy” (The Journal of Clinical Investigation, 2019).
